Assay results as given in US10519163B2, “Pyrrolopyrimidine derivatives as TAM inhibitors” (Incyte Corporation, priority 2015, dated 2019).
pIC50: −log10 of the molar value. Like-named read-outs stand apart in the source and are kept apart here.

Legend:
JAK2 = JAK2 (Homo sapiens (Human), UniProt O60674); details: selectivity ratio, IC50 at 1 mM ATP; cited from earlier work
Tyro3 = Tyro3 (Homo sapiens (Human), UniProt Q06418); test: TAM Kinase Assay (HTRF), Tyro3; format: biochemical; details: 0.366 nM Tyro3, HTRF, 60 min room temperature; read-out: Tyro3IC50
Chain of Tyro3 (Q06418 41-890): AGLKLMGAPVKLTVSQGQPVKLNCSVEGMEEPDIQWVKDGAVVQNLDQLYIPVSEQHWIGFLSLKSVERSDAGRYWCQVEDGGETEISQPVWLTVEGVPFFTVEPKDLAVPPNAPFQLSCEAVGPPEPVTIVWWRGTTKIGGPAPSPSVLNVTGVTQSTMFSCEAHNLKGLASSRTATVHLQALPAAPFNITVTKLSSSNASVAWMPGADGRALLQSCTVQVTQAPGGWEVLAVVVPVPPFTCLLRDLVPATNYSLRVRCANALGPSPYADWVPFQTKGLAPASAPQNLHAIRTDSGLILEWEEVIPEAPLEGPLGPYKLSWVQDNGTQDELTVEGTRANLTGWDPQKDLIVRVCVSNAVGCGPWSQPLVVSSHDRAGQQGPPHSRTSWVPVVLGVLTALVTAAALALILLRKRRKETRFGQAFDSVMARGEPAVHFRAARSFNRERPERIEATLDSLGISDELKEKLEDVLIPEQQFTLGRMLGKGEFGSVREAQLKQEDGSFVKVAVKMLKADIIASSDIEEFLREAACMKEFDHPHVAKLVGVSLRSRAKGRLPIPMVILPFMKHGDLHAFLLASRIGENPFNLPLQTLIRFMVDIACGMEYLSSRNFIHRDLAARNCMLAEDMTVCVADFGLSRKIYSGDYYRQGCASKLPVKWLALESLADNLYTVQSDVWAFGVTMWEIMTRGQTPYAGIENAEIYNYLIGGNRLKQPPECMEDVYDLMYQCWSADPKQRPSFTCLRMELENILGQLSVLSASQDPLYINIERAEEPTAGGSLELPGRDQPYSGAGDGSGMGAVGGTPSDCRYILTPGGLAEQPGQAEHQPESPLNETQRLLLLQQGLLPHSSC
Method: (§1) 0.1 ul test compounds dissolved in DMSO were transferred from compound plates to white 384-well assay plates (Greiner [sequence] plates). […] The plate was protected from light and incubated at room temperature for 60 min.

phosphor-Axl = phosphor-Axl (Homo sapiens (Human), UniProt P30530); test: TAM Kinase Assay (HTRF), phosphor-Axl; format: biochemical; details: read-out: Phospho-Axl IC50;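 further: test enzyme was recombinant Axl protein, pre-activated by autophosphorylation with ATP and MgCl2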
Chain of phosphor-Axl (P30530 26-894): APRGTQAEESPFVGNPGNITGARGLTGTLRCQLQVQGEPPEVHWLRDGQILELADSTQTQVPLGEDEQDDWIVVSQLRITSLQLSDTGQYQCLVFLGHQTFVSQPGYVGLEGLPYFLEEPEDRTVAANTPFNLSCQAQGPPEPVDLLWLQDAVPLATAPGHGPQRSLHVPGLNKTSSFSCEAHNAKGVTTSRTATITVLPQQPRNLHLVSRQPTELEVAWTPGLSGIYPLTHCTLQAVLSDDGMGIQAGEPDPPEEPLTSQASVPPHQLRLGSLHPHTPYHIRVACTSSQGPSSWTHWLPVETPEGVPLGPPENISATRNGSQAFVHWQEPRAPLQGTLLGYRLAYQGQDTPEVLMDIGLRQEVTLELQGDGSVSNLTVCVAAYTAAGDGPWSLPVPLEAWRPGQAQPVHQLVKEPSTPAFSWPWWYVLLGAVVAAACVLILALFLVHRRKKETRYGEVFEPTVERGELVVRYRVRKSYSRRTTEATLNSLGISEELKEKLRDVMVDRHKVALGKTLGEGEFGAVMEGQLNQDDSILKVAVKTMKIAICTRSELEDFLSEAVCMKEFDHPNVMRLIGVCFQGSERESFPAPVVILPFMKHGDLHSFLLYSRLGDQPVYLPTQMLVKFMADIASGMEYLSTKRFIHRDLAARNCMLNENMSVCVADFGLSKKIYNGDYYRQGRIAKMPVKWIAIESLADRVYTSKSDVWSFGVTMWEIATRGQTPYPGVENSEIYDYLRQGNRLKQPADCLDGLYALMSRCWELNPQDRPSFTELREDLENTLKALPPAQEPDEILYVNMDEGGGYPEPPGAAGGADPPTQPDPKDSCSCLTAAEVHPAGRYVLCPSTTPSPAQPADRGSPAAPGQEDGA
Method: Autophosphorylation of Axl was carried out by incubating the recombinant Axl protein (Life Technologies, PV4275) in buffer containing 50 mM Tris, pH7.5, 0.2 mg/ml Axl, 5 mM ATP, 20 mM MgCl2 and 2 mM DTT at room temperature for 1 hour.
as §1

c-Mer = c-Mer (Homo sapiens (Human), UniProt Q12866); test: TAM Kinase Assay (HTRF), c-Mer; format: biochemical
Method: as §1

JAK1 = JAK1 (Homo sapiens (Human), UniProt P23458); details: cited from earlier work
Chain of JAK1 (P23458 whole entry, species assumed): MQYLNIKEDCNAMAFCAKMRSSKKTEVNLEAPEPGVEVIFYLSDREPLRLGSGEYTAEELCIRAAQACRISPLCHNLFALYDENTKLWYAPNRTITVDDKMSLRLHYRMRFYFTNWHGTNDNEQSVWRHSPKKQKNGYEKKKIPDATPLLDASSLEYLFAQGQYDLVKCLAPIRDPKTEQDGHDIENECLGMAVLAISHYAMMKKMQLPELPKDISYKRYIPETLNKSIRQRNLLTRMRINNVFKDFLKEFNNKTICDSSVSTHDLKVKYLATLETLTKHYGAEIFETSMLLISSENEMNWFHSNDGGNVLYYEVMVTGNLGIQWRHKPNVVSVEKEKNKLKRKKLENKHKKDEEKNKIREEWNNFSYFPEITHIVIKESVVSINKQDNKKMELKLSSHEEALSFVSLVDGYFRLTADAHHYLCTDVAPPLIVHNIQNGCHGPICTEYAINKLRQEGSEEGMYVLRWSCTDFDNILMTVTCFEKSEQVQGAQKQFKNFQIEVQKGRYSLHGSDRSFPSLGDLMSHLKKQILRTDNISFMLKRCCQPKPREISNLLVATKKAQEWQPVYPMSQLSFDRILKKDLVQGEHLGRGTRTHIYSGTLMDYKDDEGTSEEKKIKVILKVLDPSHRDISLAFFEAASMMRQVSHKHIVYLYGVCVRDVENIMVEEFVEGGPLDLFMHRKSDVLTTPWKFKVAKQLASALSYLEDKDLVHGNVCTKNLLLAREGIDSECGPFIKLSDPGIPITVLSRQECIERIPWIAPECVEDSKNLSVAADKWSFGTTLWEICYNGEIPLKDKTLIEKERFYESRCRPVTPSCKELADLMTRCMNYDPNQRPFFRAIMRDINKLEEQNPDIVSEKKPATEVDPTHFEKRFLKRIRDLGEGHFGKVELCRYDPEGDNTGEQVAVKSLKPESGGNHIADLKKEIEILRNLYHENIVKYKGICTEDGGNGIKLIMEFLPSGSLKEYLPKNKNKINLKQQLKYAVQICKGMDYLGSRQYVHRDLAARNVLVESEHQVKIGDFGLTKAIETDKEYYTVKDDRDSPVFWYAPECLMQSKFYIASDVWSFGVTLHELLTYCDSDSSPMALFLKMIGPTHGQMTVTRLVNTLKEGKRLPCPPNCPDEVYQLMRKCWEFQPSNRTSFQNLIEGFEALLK

PI3Kδ = PI3Kδ (Homo sapiens (Human), UniProt O00329); details: cited from earlier work
NK cells = details: cited from earlier work
[1] = tested on: tumor models with different histologies; details: cited from earlier work
[2] = 5.1 nM phosphor-Axl, HTRF, 60 min room temperature
[3] = 0.0625 nM c-Mer, HTRF, 60 min room temperature, read-out: c-Mer IC50

Chain of JAK2 (O60674 whole entry, species assumed): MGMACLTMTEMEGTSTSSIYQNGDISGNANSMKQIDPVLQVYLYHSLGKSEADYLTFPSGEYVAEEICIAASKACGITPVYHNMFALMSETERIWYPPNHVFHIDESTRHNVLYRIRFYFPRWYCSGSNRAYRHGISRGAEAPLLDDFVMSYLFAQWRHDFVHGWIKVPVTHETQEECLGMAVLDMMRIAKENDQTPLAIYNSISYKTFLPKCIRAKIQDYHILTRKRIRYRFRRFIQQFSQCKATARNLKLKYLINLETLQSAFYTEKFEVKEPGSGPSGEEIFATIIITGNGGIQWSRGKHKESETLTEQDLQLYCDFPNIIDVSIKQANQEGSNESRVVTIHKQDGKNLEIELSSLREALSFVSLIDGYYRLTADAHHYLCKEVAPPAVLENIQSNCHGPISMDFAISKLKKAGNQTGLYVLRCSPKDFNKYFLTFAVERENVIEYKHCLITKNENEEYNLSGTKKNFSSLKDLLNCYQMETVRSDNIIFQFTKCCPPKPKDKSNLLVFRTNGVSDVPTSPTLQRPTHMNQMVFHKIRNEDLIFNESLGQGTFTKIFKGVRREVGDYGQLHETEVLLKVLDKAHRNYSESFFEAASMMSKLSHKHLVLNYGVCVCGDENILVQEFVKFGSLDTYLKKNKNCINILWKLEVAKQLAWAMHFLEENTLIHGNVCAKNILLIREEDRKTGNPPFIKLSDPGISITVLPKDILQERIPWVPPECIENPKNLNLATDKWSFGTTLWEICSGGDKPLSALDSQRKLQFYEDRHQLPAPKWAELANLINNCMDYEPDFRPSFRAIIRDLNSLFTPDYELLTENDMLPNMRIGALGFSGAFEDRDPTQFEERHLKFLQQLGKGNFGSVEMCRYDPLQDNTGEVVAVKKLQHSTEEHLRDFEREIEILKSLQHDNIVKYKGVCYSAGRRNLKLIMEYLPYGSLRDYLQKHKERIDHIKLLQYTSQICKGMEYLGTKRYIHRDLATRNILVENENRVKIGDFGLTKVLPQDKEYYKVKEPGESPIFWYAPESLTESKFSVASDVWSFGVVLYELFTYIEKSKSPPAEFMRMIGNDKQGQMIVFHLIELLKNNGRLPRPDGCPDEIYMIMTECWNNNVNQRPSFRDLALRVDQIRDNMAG

Row | SMILES | pIC50 (Tyro3) | pIC50 (phosphor-Axl; [2]) | pIC50 (c-Mer; [3]) | also measured
1 | N#CCC1(n2cc(-c3ncnc4[nH]ccc34)cn2)CN(C2CCN(C(=O)c3ccnc(C(F)(F)F)n3)CC2)C1 [Compound 9, [3-[4-(7H-pyrrolo[2,3-d]pyrimidin-4-yl)-1H-pyrazol-1-yl]-1-(1-{[2-(trifluoromethyl)pyrimidin-4-yl]carbonyl}piperidin-4-yl)azetidin-3-yl]acetonitrile, reference compound] |  |  |  | JAK2/JAK1 (JAK2): >10
2 | NCC1(c2cncc(-c3ncnc4[nH]ccc34)c2)Cc2ccccc2C1 [Example 1, 1-{2-[5-(7H-Pyrrolo[2,3-d]pyrimidin-4-yl)pyridin-3-yl]-2,3-dihydro-1H-inden-2-yl}methanamine] | < 5.52 | > 6.30 | > 6.30 | 
3 | NCC1(c2cccc(-c3ncnc4[nH]ccc34)n2)Cc2ccccc2C1 [Example 2, 1-{2-[6-(7H-Pyrrolo[2,3-d]pyrimidin-4-yl)pyridin-2-yl]-2,3-dihydro-1H-inden-2-yl}methanamine] | < 5.52 | 5.52 to 6.00 | 5.52 to 6.00 | 
4 | NCC1(c2cc(-c3ncnc4[nH]ccc34)ccn2)Cc2ccccc2C1 [Example 3, 1-{2-[4-(7H-Pyrrolo[2,3-d]pyrimidin-4-yl)pyridin-2-yl]-2,3-dihydro-1H-inden-2-yl}methanamine] | 5.52 to 6.00 | > 6.30 | > 6.30 | 
5 | NCC1(c2ccnc(-c3ncnc4[nH]ccc34)c2)Cc2ccccc2C1 [Example 4, 1-{2-[2-(7H-Pyrrolo[2,3-d]pyrimidin-4-yl)pyridin-4-yl]-2,3-dihydro-1H-inden-2-yl}methanamine] | < 5.52 | 6.00 to 6.30 | 6.00 to 6.30 | 
6 | NCC1(c2cccc(-c3ncnc4[nH]ccc34)c2)Cc2ccncc2C1 (stereo not drawn) [Example 5, 1-{6-[3-(7H-Pyrrolo[2,3-d]pyrimidin-4-yl)phenyl]-6,7-dihydro-5H-cyclopenta[c]pyridin-6-yl}methanamine] | 5.52 to 6.00 | > 6.30 | > 6.30 | 
7 | NCC1(c2cccc(-c3ncnc4[nH]ccc34)c2)Cc2cccnc2C1 (stereo not drawn) [Example 6, 1-{6-[3-(7H-Pyrrolo[2,3-d]pyrimidin-4-yl)phenyl]-6,7-dihydro-5H-cyclopenta[b]pyridin-6-yl}methanamine] | < 5.52 | > 6.30 | > 6.30 | 
8 | NCC1(c2cc(-c3ncnc4[nH]ccc34)cc(Cl)n2)Cc2ccccc2C1 [Example 7, 1-{2-[6-Chloro-4-(7H-pyrrolo[2,3-d]pyrimidin-4-yl)pyridin-2-yl]-2,3-dihydro-1H-inden-2-yl}methanamine] | < 5.52 | > 6.30 | > 6.30 | 
9 | CC(=O)NCC1(c2cc(-c3ncnc4[nH]ccc34)ccn2)Cc2ccccc2C1 [Example 8, N-({2-[4-(7H-Pyrrolo[2,3-d]pyrimidin-4-yl)pyridin-2-yl]-2,3-dihydro-1H-inden-2-yl}methyl)acetamide] | < 5.52 | 5.52 to 6.00 |  | 
10 | CC(=O)NCC1(c2cccc(-c3ncnc4[nH]ccc34)c2)Cc2ccncc2C1 (stereo not drawn) [Example 10, N-({6-[3-(7H-Pyrrolo[2,3-d]pyrimidin-4-yl)phenyl]-6,7-dihydro-5H-cyclopenta[c]pyridin-6-yl}methyl)acetamide] | < 5.52 | 5.52 to 6.00 |  | 
11 | NCC1(c2cccc(-c3ncnc4[nH]ccc34)c2)Cc2ccccc2C1 [Example 11, 1-{2-[3-(7H-Pyrrolo[2,3-d]pyrimidin-4-yl)phenyl]-2,3-dihydro-1H-inden-2-yl}methanamine] | 5.52 to 6.00 | > 6.30 | > 6.30 | 
12 | OCC1(c2cccc(-c3ncnc4[nH]ccc34)c2)Cc2ccccc2C1 [Example 12, {2-[3-(7H-Pyrrolo[2,3-d]pyrimidin-4-yl)phenyl]-2,3-dihydro-1H-inden-2-yl}methanol] | < 5.52 | > 6.30 | > 6.30 | 
13 | CC(=O)NCC1(c2cccc(-c3ncnc4[nH]ccc34)c2)Cc2ccccc2C1 [Example 16, N-({2-[3-(7H-Pyrrolo[2,3-d]pyrimidin-4-yl)phenyl]-2,3-dihydro-1H-inden-2-yl}methyl)acetamide] | < 5.52 | > 6.30 | > 6.30 | 
14 | CC(C)C(=O)NCC1(c2cccc(-c3ncnc4[nH]ccc34)c2)Cc2ccccc2C1 [Example 17, 2-Methyl-N-({2-[3-(7H-pyrrolo[2,3-d]pyrimidin-4-yl)phenyl]-2,3-dihydro-1H-inden-2-yl}methyl)propanamide] | < 5.52 | > 6.30 | > 6.30 | 
15 | O=C(NCC1(c2cccc(-c3ncnc4[nH]ccc34)c2)Cc2ccccc2C1)C1CC1 [Example 18, N-({2-[3-(7H-Pyrrolo[2,3-d]pyrimidin-4-yl)phenyl]-2,3-dihydro-1H-inden-2-yl}methyl)cyclopropanecarboxamide] | < 5.52 | > 6.30 | > 6.30 | 
16 | FCC1(c2cccc(-c3ncnc4[nH]ccc34)c2)Cc2ccccc2C1 [Example 19, 4-{3-[2-(Fluoromethyl)-2,3-dihydro-1H-inden-2-yl]phenyl}-7H-pyrrolo[2,3-d]pyrimidine] | < 5.52 | < 5.52 | < 5.52 | 
17 | FC(F)C1(c2cccc(-c3ncnc4[nH]ccc34)c2)Cc2ccccc2C1 [Example 20, 4-{3-[2-(Difluoromethyl)-2,3-dihydro-1H-inden-2-yl]phenyl}-7H-pyrrolo[2,3-d]pyrimidine] | < 5.52 | < 5.52 | < 5.52 | 
18 | CS(=O)(=O)NCC1(c2cccc(-c3ncnc4[nH]ccc34)c2)Cc2ccccc2C1 [Example 21, N-({2-[3-(7H-Pyrrolo[2,3-d]pyrimidin-4-yl)phenyl]-2,3-dihydro-1H-inden-2-yl}methyl)methanesulfonamide] | < 5.52 | 6.00 to 6.30 | 5.52 to 6.00 | 
19 | COC(=O)NCC1(c2cccc(-c3ncnc4[nH]ccc34)c2)Cc2ccccc2C1 [Example 22, Methyl ({2-[3-(7H-pyrrolo[2,3-d]pyrimidin-4-yl)phenyl]-2,3-dihydro-1H-inden-2-yl}methyl)carbamate] | < 5.52 | > 6.30 | > 6.30 | 
20 | CN(C)CC1(c2cccc(-c3ncnc4[nH]ccc34)c2)Cc2ccccc2C1 [Example 23, N,N-Dimethyl-1-{2-[3-(7H-pyrrolo[2,3-d]pyrimidin-4-yl)phenyl]-2,3-dihydro-1H-inden-2-yl}methanamine] | < 5.52 | > 6.30 | > 6.30 | 
21 | CNCC1(c2cccc(-c3ncnc4[nH]ccc34)c2)Cc2ccccc2C1 [Example 24, N-Methyl-1-{2-[3-(7H-pyrrolo[2,3-d]pyrimidin-4-yl)phenyl]-2,3-dihydro-1H-inden-2-yl}methanamine] | < 5.52 | > 6.30 | > 6.30 | 
22 | COCC1(c2cccc(-c3ncnc4[nH]ccc34)c2)Cc2ccccc2C1 [Example 25, 4-{3-[2-(Methoxymethyl)-2,3-dihydro-1H-inden-2-yl]phenyl}-7H-pyrrolo[2,3-d]pyrimidine] | < 5.52 | 5.52 to 6.00 | < 5.52 | 
23 | O=C(NCC1(c2cccc(-c3ncnc4[nH]ccc34)c2)Cc2ccccc2C1)C1CCC1 [Example 26, N-({2-[3-(7H-Pyrrolo[2,3-d]pyrimidin-4-yl)phenyl]-2,3-dihydro-1H-inden-2-yl}methyl)cyclobutanecarboxamide] | < 5.52 | > 6.30 |  | JAK2/JAK1 (JAK2): >10; pIC50 (JAK1): > 8.00
24 | O=C(NCC1(c2cccc(-c3ncnc4[nH]ccc34)c2)Cc2ccccc2C1)C1CCCC1 [Example 27, N-({2-[3-(7H-Pyrrolo[2,3-d]pyrimidin-4-yl)phenyl]-2,3-dihydro-1H-inden-2-yl}methyl)cyclopentanecarboxamide] | < 5.52 | > 6.30 |  | 
25 | O=C(NCC1(c2cccc(-c3ncnc4[nH]ccc34)c2)Cc2ccccc2C1)c1cccs1 [Example 28] | < 5.52 | 5.52 to 6.00 | < 5.52 | 
26 | O=C(NCC1(c2cccc(-c3ncnc4[nH]ccc34)c2)Cc2ccccc2C1)c1ccno1 [Example 31, N-({2-[3-(7H-Pyrrolo[2,3-d]pyrimidin-4-yl)phenyl]-2,3-dihydro-1H-inden-2-yl}methyl)isoxazole-5-carboxamide] | < 5.52 | < 5.52 | < 5.52 | 
27 | Cn1cc(C(=O)NCC2(c3cccc(-c4ncnc5[nH]ccc45)c3)Cc3ccccc3C2)cn1 [Example 33, 1-Methyl-N-({2-[3-(7H-pyrrolo[2,3-d]pyrimidin-4-yl)phenyl]-2,3-dihydro-1H-inden-2-yl}methyl)-1H-pyrazole-4-carboxamide] | < 5.52 |  |  | pIC50 (phosphor-Axl): < 5.52; pIC50 (c-Mer): < 5.52
28 | O=C(NCC1(c2cccc(-c3ncnc4[nH]ccc34)c2)Cc2ccccc2C1)c1ccco1 [Example 34, N-({2-[3-(7H-Pyrrolo[2,3-d]pyrimidin-4-yl)phenyl]-2,3-dihydro-1H-inden-2-yl}methyl)-2-furamide] | < 5.52 |  |  | pIC50 (PI3Kδ): 7.00 to 7.30
29 | CCOc1cn(-c2ccc(F)cc2C)nc1C(=O)Nc1ccc(Oc2ccnc3cc(OC)c(OC)cc23)c(F)c1 [LDC1267] |  |  |  | activation of NK cells (NK cells): activates NK cells; metastasis in tumor models [1]: blocks metastasis
